# Experimental data taken from the supplement of paper PMC6045584.
# ± gives the standard deviation of the averaged measurements.
# Compound: O=C(NOCC1CC1)c1ccc(F)c(F)c1Nc1ccc(I)cc1Cl
# Test: surviving fraction relative to DMSO-only wells; higher = less growth inhibition
# Settings: 0.5 nM; exposure time: 5 days
# In short: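 A line counted only if its three screens reached replicate Pearson r >0.7 and median Z' >0.3. Tumour cells in log phase were seeded at 250–500 per well in 384-well plates and, after 24 hours, kept in continuous contact with inhibitors at 0.5, 1, 5, 10, 50, 100, 500 and 1000 nM for five days. Surviving fraction was taken from CellTiter-Glo luminescence relative to the median of DMSO-only wells.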
row,Test System,surviving fraction
1,SCC47 HEADNECK,0.82 ± 0.063
2,SCC90 HEADNECK,0.786 ± 0.13
3,SG27 HEADNECK,0.918 ± 0.036
4,SG28 HEADNECK,0.871 ± 0.049
5,SG31 HEADNECK,1.02 ± 0.087
6,SG32 HEADNECK,0.546 ± 0.12
7,SG43 HEADNECK,1.05 ± 0.079
8,SIHA CERVIX,0.754 ± 0.016
9,SJSA1 BONE,1.05 ± 0.036
10,SKBR3 BREAST,1.12 ± 0.17
11,SNU475 LIVER,0.432 ± 0.042
12,SUM44 BREAST,0.951 ± 0.042
13,SUM149 BREAST,0.375 ± 0.011
14,SUM149.B1*.S BREAST,0.5813 ± 0.0045
15,SUM159 BREAST,1.06 ± 0.29
16,SYO1 SYNOVIAL,0.469 ± 0.17
17,T47D BREAST,0.8871 ± 0.0062
18,U2OS BONE,1.03 ± 0.016
19,VCAP PROSTATE,0.925 ± 0.048
20,VP229 BREAST,1.11 ± 0.054
21,YAMATO SYNOVIAL,0.319 ± 0.026
22,ZR751 BREAST,0.804 ± 0.14

# Same assay, conditions: 1 nM; exposure time: 5 days
row,Test System,surviving fraction
1,SCC47 HEADNECK,0.844 ± 0.011
2,SCC90 HEADNECK,0.773 ± 0.081
3,SG27 HEADNECK,1.02 ± 0.075
4,SG28 HEADNECK,1.03 ± 0.061
5,SG31 HEADNECK,0.977 ± 0.097
6,SG32 HEADNECK,0.858 ± 0.042
7,SG43 HEADNECK,0.969 ± 0.011
8,SIHA CERVIX,0.8147 ± 0.0075
9,SJSA1 BONE,1.06 ± 0.035
10,SKBR3 BREAST,1.1 ± 0.13
11,SNU475 LIVER,0.908 ± 0.038
12,SUM44 BREAST,0.954 ± 0.062
13,SUM149 BREAST,1.04 ± 0.067
14,SUM149.B1*.S BREAST,0.956 ± 0.018
15,SUM159 BREAST,1.03 ± 0.12
16,SYO1 SYNOVIAL,0.941 ± 0.093
17,T47D BREAST,0.999 ± 0.027
18,U2OS BONE,1.03 ± 0.019
19,VCAP PROSTATE,0.984 ± 0.082
20,VP229 BREAST,1.16 ± 0.099
21,YAMATO SYNOVIAL,1.07 ± 0.11
22,ZR751 BREAST,0.868 ± 0.022

# Same assay, conditions: 5 nM; exposure time: 5 days
row,Test System,surviving fraction
1,SCC47 HEADNECK,0.951 ± 0.013
2,SCC90 HEADNECK,0.991 ± 0.098
3,SG27 HEADNECK,0.973 ± 0.11
4,SG28 HEADNECK,0.836 ± 0.024
5,SG31 HEADNECK,0.951 ± 0.14
6,SG32 HEADNECK,0.883 ± 0.22
7,SG43 HEADNECK,0.853 ± 0.17
8,SIHA CERVIX,0.955 ± 0.058
9,SJSA1 BONE,1.119 ± 0.0046
10,SKBR3 BREAST,1.11 ± 0.07
11,SNU475 LIVER,0.802 ± 0.022
12,SUM44 BREAST,1.04 ± 0.013
13,SUM149 BREAST,0.908 ± 0.059
14,SUM149.B1*.S BREAST,0.835 ± 0.058
15,SUM159 BREAST,1.11 ± 0.36
16,SYO1 SYNOVIAL,0.833 ± 0.065
17,T47D BREAST,0.943 ± 0.018
18,U2OS BONE,1.02 ± 0.036
19,VCAP PROSTATE,0.923 ± 0.042
20,VP229 BREAST,1.24 ± 0.14
21,YAMATO SYNOVIAL,0.9 ± 0.084
22,ZR751 BREAST,0.806 ± 0.049

# Same assay, conditions: 10 nM; exposure time: 5 days
row,Test System,surviving fraction
1,SCC47 HEADNECK,0.973 ± 0.087
2,SCC90 HEADNECK,0.847 ± 0.16
3,SG27 HEADNECK,0.986 ± 0.075
4,SG28 HEADNECK,0.932 ± 0.099
5,SG31 HEADNECK,1.06 ± 0.18
6,SG32 HEADNECK,1.03 ± 0.049
7,SG43 HEADNECK,0.676 ± 0.16
8,SIHA CERVIX,0.923 ± 0.027
9,SJSA1 BONE,1.11 ± 0.013
10,SKBR3 BREAST,1.1 ± 0.26
11,SNU475 LIVER,0.941 ± 0.018
12,SUM44 BREAST,1.05 ± 0.032
13,SUM149 BREAST,0.912 ± 0.032
14,SUM149.B1*.S BREAST,0.945 ± 0.034
15,SUM159 BREAST,1.03 ± 0.24
16,SYO1 SYNOVIAL,0.888 ± 0.034
17,T47D BREAST,1.008 ± 0.0089
18,U2OS BONE,1.07 ± 0.042
19,VCAP PROSTATE,1.01 ± 0.12
20,VP229 BREAST,1.08 ± 0.041
21,YAMATO SYNOVIAL,1.2 ± 0.044
22,ZR751 BREAST,0.814 ± 0.056

# Same assay, conditions: 50 nM; exposure time: 5 days
row,Test System,surviving fraction
1,SCC47 HEADNECK,0.928 ± 0.089
2,SCC90 HEADNECK,0.672 ± 0.045
3,SG27 HEADNECK,1.02 ± 0.22
4,SG28 HEADNECK,0.801 ± 0.06
5,SG31 HEADNECK,0.778 ± 0.12
6,SG32 HEADNECK,0.701 ± 0.085
7,SG43 HEADNECK,0.567 ± 0.1
8,SIHA CERVIX,0.899 ± 0.018
9,SJSA1 BONE,0.968 ± 0.025
10,SKBR3 BREAST,1.08 ± 0.19
11,SNU475 LIVER,0.439 ± 0.015
12,SUM44 BREAST,1.07 ± 0.064
13,SUM149 BREAST,0.512 ± 0.024
14,SUM149.B1*.S BREAST,0.6543 ± 0.0045
15,SUM159 BREAST,0.84 ± 0.2
16,SYO1 SYNOVIAL,0.542 ± 0.11
17,T47D BREAST,0.899 ± 0.011
18,U2OS BONE,0.983 ± 0.026
19,VCAP PROSTATE,0.86 ± 0.079
20,VP229 BREAST,1.03 ± 0.13
21,YAMATO SYNOVIAL,0.483 ± 0.013
22,ZR751 BREAST,0.697 ± 0.071

# Same assay, conditions: 100 nM; exposure time: 5 days
row,Test System,surviving fraction
1,SCC47 HEADNECK,0.907 ± 0.044
2,SCC90 HEADNECK,0.495 ± 0.12
3,SG27 HEADNECK,0.988 ± 0.017
4,SG28 HEADNECK,0.781 ± 0.065
5,SG31 HEADNECK,0.756 ± 0.11
6,SG32 HEADNECK,0.805 ± 0.065
7,SG43 HEADNECK,0.521 ± 0.06
8,SIHA CERVIX,0.873 ± 0.06
9,SJSA1 BONE,0.925 ± 0.027
10,SKBR3 BREAST,1.05 ± 0.14
11,SNU475 LIVER,0.883 ± 0.013
12,SUM44 BREAST,1.03 ± 0.043
13,SUM149 BREAST,0.755 ± 0.1
14,SUM149.B1*.S BREAST,0.789 ± 0.0088
15,SUM159 BREAST,0.726 ± 0.1
16,SYO1 SYNOVIAL,0.885 ± 0.023
17,T47D BREAST,1.06 ± 0.04
18,U2OS BONE,0.996 ± 0.035
19,VCAP PROSTATE,1.08 ± 0.068
20,VP229 BREAST,0.908 ± 0.043
21,YAMATO SYNOVIAL,1.1 ± 0.14
22,ZR751 BREAST,0.846 ± 0.03

# Same assay, conditions: 500 nM; exposure time: 5 days
row,Test System,surviving fraction
1,SCC47 HEADNECK,0.628 ± 0.058
2,SCC90 HEADNECK,0.235 ± 0.036
3,SG27 HEADNECK,1.13 ± 0.12
4,SG28 HEADNECK,0.633 ± 0.023
5,SG31 HEADNECK,0.575 ± 0.032
6,SG32 HEADNECK,0.751 ± 0.059
7,SG43 HEADNECK,0.387 ± 0.07
8,SIHA CERVIX,0.709 ± 0.042
9,SJSA1 BONE,0.742 ± 0.028
10,SKBR3 BREAST,1.06 ± 0.14
11,SNU475 LIVER,0.676 ± 0.018
12,SUM44 BREAST,1.02 ± 0.082
13,SUM149 BREAST,0.407 ± 0.031
14,SUM149.B1*.S BREAST,0.503 ± 0.024
15,SUM159 BREAST,0.518 ± 0.11
16,SYO1 SYNOVIAL,0.784 ± 0.058
17,T47D BREAST,0.996 ± 0.075
18,U2OS BONE,0.95 ± 0.03
19,VCAP PROSTATE,1.05 ± 0.13
20,VP229 BREAST,0.782 ± 0.039
21,YAMATO SYNOVIAL,0.789 ± 0.064
22,ZR751 BREAST,0.677 ± 0.03

# Same assay, conditions: 1000 nM; exposure time: 5 days
row,Test System,surviving fraction
1,SCC47 HEADNECK,0.658 ± 0.024
2,SCC90 HEADNECK,0.193 ± 0.037
3,SG27 HEADNECK,1.24 ± 0.19
4,SG28 HEADNECK,0.616 ± 0.017
5,SG31 HEADNECK,0.547 ± 0.088
6,SG32 HEADNECK,0.818 ± 0.079
7,SG43 HEADNECK,0.333 ± 0.064
8,SIHA CERVIX,0.765 ± 0.067
9,SJSA1 BONE,0.591 ± 0.046
10,SKBR3 BREAST,1.05 ± 0.13
11,SNU475 LIVER,0.741 ± 0.039
12,SUM44 BREAST,1.03 ± 0.047
13,SUM149 BREAST,0.277 ± 0.053
14,SUM149.B1*.S BREAST,0.459 ± 0.05
15,SUM159 BREAST,0.455 ± 0.023
16,SYO1 SYNOVIAL,0.8681 ± 0.0032
17,T47D BREAST,0.977 ± 0.07
18,U2OS BONE,0.876 ± 0.03
19,VCAP PROSTATE,0.975 ± 0.0027
20,VP229 BREAST,0.769 ± 0.074
21,YAMATO SYNOVIAL,0.928 ± 0.049
22,ZR751 BREAST,0.682 ± 0.011
